What was measured:
[1] = tested on: persian speedwell; experiment: Test Example 4: herbicidal effect by soil treatment (Table 19, symbol R); assay type: in vivo, Persian speedwell (Veronica persica); conditions: amount of applied herbicide 320 g/ha
How it was run: (§1)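 Emulsion of test compound, water-diluted to predetermined amount, sprayed on soil after sowing (seed depth ~1.5 cm, sterilized diluvial soil). Greenhouse, 25–30° C. Effect graded at three weeks post-spray.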

[2] = tested on: barnyard grass; experiment: Test Example 4: herbicidal effect by soil treatment (Table 19, symbol H); assay type: in vivo, barnyard grass (Echinochloa crus-galli); conditions: amount of applied herbicide 320 g/ha
How it was run: as §1

[3] = tested on: late watergrass; experiment: Test Example 1: herbicidal activity, application before weed generation under submerged conditions (Table 16, symbol A); assay type: in vivo, late watergrass (Echinochloa oryzicola); conditions: amount of applied herbicide 320 g/ha
How it was run: (§2)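 Submerged Wagner pots (alluvial soil, 4 cm water) sown with weed seeds and planted with 2.5-leaf rice seedlings; emulsifiable concentrate diluted in water applied to water surface on sowing day. Held in greenhouse at 25-30 °C; injury scored 0-5 by herbicidal rate after three weeks.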

[4] = tested on: windgrass; experiment: Test Example 4: herbicidal effect by soil treatment (Table 19, symbol L); assay type: in vivo, windgrass (Apera spica-venti); conditions: amount of applied herbicide 320 g/ha
How it was run: as §1

[5] = tested on: barnyard grass; experiment: Test Example 5: herbicidal effect by foliage application, plastic box (Table 20, symbol H); assay type: in vivo, barnyard grass (Echinochloa crus-galli); conditions: foliage application, 320 g/ha, three weeks after application
How it was run: (§3)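 Post-emergence foliar test in sterilized diluvial soil. Compound applied as water-diluted emulsion at a predetermined rate to 14-day-old plants; evaluation at three weeks.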

[6] = tested on: wild oat; experiment: Test Example 5: herbicidal effect by foliage application, plastic box (Table 20, symbol I); assay type: in vivo, wild oat (Avena fatua); conditions: foliage application, 320 g/ha, three weeks after application
How it was run: as §3

[7] = tested on: Chinese sprangletop; experiment: Test Example 3: herbicidal effect by foliage application, Wagner pot (Table 18, symbol D); assay type: in vivo, chinese sprangletop (Leptochloa chinensis)
How it was run: (§4)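 Plants were sown in alluvial soil held under 0.1–0.5 cm standing water and grown 14 days in a greenhouse at 25–30 °C. An emulsifiable formulation, water-diluted to the set dose, was then sprayed onto the foliage, and effects were scored three weeks later using previously defined criteria.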

[8] = tested on: lambsquarters; experiment: Test Example 5: herbicidal effect by foliage application, plastic box (Table 20, symbol O); assay type: in vivo, lambsquarters (Chenopodium album); conditions: foliage application, 320 g/ha, three weeks after application
How it was run: as §3

[9] = tested on: oval-leafed pondweed; experiment: Test Example 1: herbicidal activity, application before weed generation under submerged conditions (Table 16, symbol C); assay type: in vivo, oval-leafed pondweed (Monochoria vaginalis); conditions: amount of applied herbicide 320 g/ha
How it was run: as §2

[10] = tested on: blackgrass; experiment: Test Example 5: herbicidal effect by foliage application, plastic box (Table 20, symbol J); assay type: in vivo, blackgrass (Alopecurus myosuroides); conditions: foliage application, 320 g/ha, three weeks after application
How it was run: as §3

[11] = tested on: windgrass; experiment: Test Example 5: herbicidal effect by foliage application, plastic box (Table 20, symbol L); assay type: in vivo, windgrass (Apera spica-venti); conditions: foliage application, 320 g/ha, three weeks after application
How it was run: as §3

[12] = tested on: southern crabgrass; experiment: Test Example 4: herbicidal effect by soil treatment (Table 19, symbol F); assay type: in vivo, southern crabgrass (Digitaria ciliaris); conditions: amount of applied herbicide 320 g/ha
How it was run: as §1

[13] = tested on: lambsquarters; experiment: Test Example 4: herbicidal effect by soil treatment (Table 19, symbol O); assay type: in vivo, lambsquarters (Chenopodium album); conditions: amount of applied herbicide 320 g/ha
How it was run: as §1

[14] = tested on: green foxtail; experiment: Test Example 4: herbicidal effect by soil treatment (Table 19, symbol G); assay type: in vivo, green foxtail (Setaria viridis); conditions: amount of applied herbicide 320 g/ha
How it was run: as §1

[15] = tested on: wild oat; experiment: Test Example 4: herbicidal effect by soil treatment (Table 19, symbol I); assay type: in vivo, wild oat (Avena fatua); conditions: amount of applied herbicide 320 g/ha
How it was run: as §1

[16] = tested on: Italian ryegrass; experiment: Test Example 5: herbicidal effect by foliage application, plastic box (Table 20, symbol K); assay type: in vivo, Italian ryegrass (Lolium multiflorum); conditions: foliage application, 320 g/ha, three weeks after application
How it was run: as §3

[17] = tested on: green foxtail; experiment: Test Example 5: herbicidal effect by foliage application, plastic box (Table 20, symbol G); assay type: in vivo, green foxtail (Setaria viridis); conditions: foliage application, 320 g/ha, three weeks after application
How it was run: as §3

[18] = tested on: velvetleaf; experiment: Test Example 5: herbicidal effect by foliage application, plastic box (Table 20, symbol M); assay type: in vivo, velvetleaf (Abutilon theophrasti); conditions: foliage application, 320 g/ha, three weeks after application
How it was run: as §3

[19] = tested on: blackgrass; experiment: Test Example 4: herbicidal effect by soil treatment (Table 19, symbol J); assay type: in vivo, blackgrass (Alopecurus myosuroides); conditions: amount of applied herbicide 320 g/ha
How it was run: as §1

[20] = tested on: southern crabgrass; experiment: Test Example 5: herbicidal effect by foliage application, plastic box (Table 20, symbol F); assay type: in vivo, southern crabgrass (Digitaria ciliaris); conditions: foliage application, 320 g/ha, three weeks after application
How it was run: as §3

[21] = tested on: Italian ryegrass; experiment: Test Example 4: herbicidal effect by soil treatment (Table 19, symbol K); assay type: in vivo, Italian ryegrass (Lolium multiflorum); conditions: amount of applied herbicide 320 g/ha
How it was run: as §1

[22] = tested on: barnyard grass; experiment: Test Example 3: herbicidal effect by foliage application, Wagner pot (Table 18, symbol H); assay type: in vivo, barnyard grass (Echinochloa crus-galli)
How it was run: as §4

[23] = tested on: chickweed; experiment: Test Example 4: herbicidal effect by soil treatment (Table 19, symbol P); assay type: in vivo, common chickweed (Stellaria media); conditions: amount of applied herbicide 320 g/ha
How it was run: as §1

[24] = tested on: velvetleaf; experiment: Test Example 4: herbicidal effect by soil treatment (Table 19, symbol M); assay type: in vivo, velvetleaf (Abutilon theophrasti); conditions: amount of applied herbicide 320 g/ha
How it was run: as §1

[25] = tested on: persian speedwell; experiment: Test Example 5: herbicidal effect by foliage application, plastic box (Table 20, symbol R); assay type: in vivo, Persian speedwell (Veronica persica); conditions: foliage application, 320 g/ha, three weeks after application
How it was run: as §3

[26] = tested on: Japanese bulrush; experiment: Test Example 1: herbicidal activity, application before weed generation under submerged conditions (Table 16, symbol B); assay type: in vivo, Japanese bulrush (Schoenoplectus juncoides); conditions: amount of applied herbicide 320 g/ha
How it was run: as §2

[27] = tested on: rice flat sedge; experiment: Test Example 3: herbicidal effect by foliage application, Wagner pot (Table 18, symbol E); assay type: in vivo, rice flat sedge (Cyperus iria)
How it was run: as §4

[28] = tested on: redroot pigweed; experiment: Test Example 4: herbicidal effect by soil treatment (Table 19, symbol N); assay type: in vivo, redroot pigweed (Amaranthus retroflexus); conditions: amount of applied herbicide 320 g/ha
How it was run: as §1

[29] = amount of applied herbicide 320 g/ha

CCOc1ccccc1-c1sc2cc(OC)c(Cl)cc2c1-c1c(O)c(C)nn(C)c1=O [5-072]
R: persian speedwell, herbicidal effect grade [1]: 3 (Herbicidal rate of 40% or more and less than 70%) | H: barnyard grass, herbicidal effect grade [2]: 1 (Herbicidal rate of 5% or more and less than 20%) | Herbicidal effect, A: late watergrass [3]: 0 (Herbicidal rate of 5% or less (almost no effect)) | L: windgrass, herbicidal effect grade [4]: 0 (Herbicidal rate of 5% or less (almost no effect)) | herbicidal effect on barnyard grass (H) [5]: 5 (Herbicidal rate of 90% or more (almost completely withered)) | herbicidal effect on wild oat (I) [6]: 2 (Herbicidal rate of 20% or more and less than 40%) | herbicidal effect on Chinese sprangletop (D) ([7]; 320 g/ha): 3 (Herbicidal rate of 40% or more and less than 70%) | herbicidal effect on lambsquarters (O) [8]: 4 (Herbicidal rate of 70% or more and less than 90%) | Herbicidal effect, C: oval-leafed pondweed [9]: 0 (Herbicidal rate of 5% or less (almost no effect)) | herbicidal effect on blackgrass (J) [10]: 3 (Herbicidal rate of 40% or more and less than 70%) | herbicidal effect on windgrass (L) [11]: 5 (Herbicidal rate of 90% or more (almost completely withered)) | F: southern crabgrass, herbicidal effect grade [12]: 5 (Herbicidal rate of 90% or more (almost completely withered)) | O: lambsquarters, herbicidal effect grade [13]: 3 (Herbicidal rate of 40% or more and less than 70%) | G: green foxtail, herbicidal effect grade [14]: 4 (Herbicidal rate of 70% or more and less than 90%) | I: wild oat, herbicidal effect grade [15]: 0 (Herbicidal rate of 5% or less (almost no effect)) | herbicidal effect on Italian ryegrass (K) [16]: 0 (Herbicidal rate of 5% or less (almost no effect)) | herbicidal effect on green foxtail (G) [17]: 5 (Herbicidal rate of 90% or more (almost completely withered)) | herbicidal effect on velvetleaf (M) [18]: 5 (Herbicidal rate of 90% or more (almost completely withered)) | J: blackgrass, herbicidal effect grade [19]: 0 (Herbicidal rate of 5% or less (almost no effect)) | herbicidal effect on southern crabgrass (F) [20]: 5 (Herbicidal rate of 90% or more (almost completely withered)) | K: Italian ryegrass, herbicidal effect grade [21]: 0 (Herbicidal rate of 5% or less (almost no effect)) | herbicidal effect on barnyard grass (H) ([22]; 320 g/ha): 5 (Herbicidal rate of 90% or more (almost completely withered)) | P: chickweed, herbicidal effect grade [23]: 2 (Herbicidal rate of 20% or more and less than 40%) | M: velvetleaf, herbicidal effect grade [24]: 1 (Herbicidal rate of 5% or more and less than 20%) | herbicidal effect on persian speedwell (R) [25]: 5 (Herbicidal rate of 90% or more (almost completely withered)) | Herbicidal effect, B: Japanese bulrush [26]: 2 (Herbicidal rate of 20% or more and less than 40%) | herbicidal effect on rice flat sedge (E) ([27]; 320 g/ha): 5 (Herbicidal rate of 90% or more (almost completely withered)) | N: redroot pigweed, herbicidal effect grade [28]: 3 (Herbicidal rate of 40% or more and less than 70%)

COc1ccccc1-c1oc2ccc(F)cc2c1-c1c(O)c(C)nn(C)c1=O [9-019]
R: persian speedwell, herbicidal effect grade [1]: 0 (Herbicidal rate of 5% or less (almost no effect)) | H: barnyard grass, herbicidal effect grade [2]: 0 (Herbicidal rate of 5% or less (almost no effect)) | Herbicidal effect, A: late watergrass [3]: 3 (Herbicidal rate of 40% or more and less than 70%) | L: windgrass, herbicidal effect grade [4]: 0 (Herbicidal rate of 5% or less (almost no effect)) | herbicidal effect on barnyard grass (H) [5]: 0 (Herbicidal rate of 5% or less (almost no effect)) | herbicidal effect on wild oat (I) [6]: 0 (Herbicidal rate of 5% or less (almost no effect)) | Herbicidal effect on D (Chinese sprangletop), foliage application [7, 29]: 4 (Herbicidal rate of 70% or more and less than 90%) | herbicidal effect on lambsquarters (O) [8]: 0 (Herbicidal rate of 5% or less (almost no effect)) | Herbicidal effect, C: oval-leafed pondweed [9]: 0 (Herbicidal rate of 5% or less (almost no effect)) | herbicidal effect on blackgrass (J) [10]: 0 (Herbicidal rate of 5% or less (almost no effect)) | herbicidal effect on windgrass (L) [11]: 0 (Herbicidal rate of 5% or less (almost no effect)) | F: southern crabgrass, herbicidal effect grade [12]: 0 (Herbicidal rate of 5% or less (almost no effect)) | O: lambsquarters, herbicidal effect grade [13]: 1 (Herbicidal rate of 5% or more and less than 20%) | G: green foxtail, herbicidal effect grade [14]: 0 (Herbicidal rate of 5% or less (almost no effect)) | I: wild oat, herbicidal effect grade [15]: 0 (Herbicidal rate of 5% or less (almost no effect)) | herbicidal effect on Italian ryegrass (K) [16]: 0 (Herbicidal rate of 5% or less (almost no effect)) | herbicidal effect on green foxtail (G) [17]: 0 (Herbicidal rate of 5% or less (almost no effect)) | herbicidal effect on velvetleaf (M) [18]: 0 (Herbicidal rate of 5% or less (almost no effect)) | J: blackgrass, herbicidal effect grade [19]: 0 (Herbicidal rate of 5% or less (almost no effect)) | herbicidal effect on southern crabgrass (F) [20]: 0 (Herbicidal rate of 5% or less (almost no effect)) | K: Italian ryegrass, herbicidal effect grade [21]: 1 (Herbicidal rate of 5% or more and less than 20%) | Herbicidal effect on H (barnyard grass), foliage application [22, 29]: 4 (Herbicidal rate of 70% or more and less than 90%) | P: chickweed, herbicidal effect grade [23]: 0 (Herbicidal rate of 5% or less (almost no effect)) | M: velvetleaf, herbicidal effect grade [24]: 0 (Herbicidal rate of 5% or less (almost no effect)) | herbicidal effect on persian speedwell (R) [25]: 4 (Herbicidal rate of 70% or more and less than 90%) | Herbicidal effect, B: Japanese bulrush [26]: 0 (Herbicidal rate of 5% or less (almost no effect)) | Herbicidal effect on E (rice flat sedge), foliage application [27, 29]: 4 (Herbicidal rate of 70% or more and less than 90%) | N: redroot pigweed, herbicidal effect grade [28]: 2 (Herbicidal rate of 20% or more and less than 40%)

From US20230085307A1, “PYRIDAZINONE COMPOUND AND HERBICIDE” (NISSAN CHEMICAL CORPORATION, priority 2019, published 2023)
